The values below come from PubChem BioAssay (NCI).

The structures appear in SMILES notation.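 Five compound concentrations were applied to cells in 96-well plates for 48 hours; endpoints were derived by simple linear interpolation of the resulting dose-response curve. TGI marks complete inhibition of growth.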

What all share (experiment): NCI tumour cell line growth inhibition, 48 h
In assay [1] the test system is PC-3 prostate.
Assay [2] concerns MOLT-4 leukemia.
Assay [3] concerns MCF7 breast.
Assay [4] deals with K-562 leukemia.
Assay [5] deals with NCI/ADR-RES ovarian.
The test system of assay [6] is HS 578T breast.
Assay [7] concerns NCI-H226 lung.
The test system of assay [8] is 786-0 renal.
In assay [9] the test system is CAKI-1 renal.
Assay [10] deals with SF-295 CNS.
In assay [11] the test system is SNB-75 CNS.
For assay [12], the system named is NCI-H460 lung.
In assay [13] the test system is KM12 colon.
Assay [14] deals with HCC-2998 colon.
Assay [15] relates to OVCAR-8 ovarian.
Assay [16] concerns MDA-MB-231 breast.
Assay [17] relates to SF-268 CNS.
The test system of assay [18] is SN12C renal.
Assay [19] deals with HL-60(TB) leukemia.

Turning to `CCC1=CC(OCc2ccccc2)C(CCN(Cc2ccccc2)C(=O)OCc2ccccc2)C1` (stereo unspecified), the TGI in [1] is 42.9 µM; in assay [2] it was 46.5 µM; in assay [3] it was 35 µM; in assay [4], above 100 µM; in [5], 35.3 µM; in assay [6], 32.6 µM. In addition, the TGI in assay [7] is 36.5 µM; in assay [8], 40.1 µM; in assay [9] it was 28.3 µM; in assay [10], 35.3 µM; in assay [11], 22.6 µM; in assay [12], 39.7 µM. Further, the TGI in assay [13] turned out to be 29.7 µM; in [14], 35.8 µM; in [15], 32.8 µM; in assay [16], 62.6 µM; in assay [17], 32.5 µM.
On to `CCCCCN1C(=O)C(Cc2ccccc2)N=C(c2ccc(O)cc2)c2cc(Cl)ccc21` (stereo unspecified), for which the TGI in assay [1] worked out at 27.3 µM; in [2], 26.3 µM; in assay [3] it was 24.8 µM; in [4] it was 12.3 µM; in assay [5], 25.4 µM; in assay [6], 32.4 µM. Also, the TGI was 26.3 µM in assay [7]; above 39.6 µM in [18]; 27.3 µM in assay [8]; 35.1 µM in [9]; 20.7 µM in assay [10]; 23.7 µM in [11]. Moreover, the TGI in assay [12] is 24.3 µM; in assay [13], 30.3 µM; in assay [19], above 100 µM; in assay [15], 25.8 µM; in [16], 35.9 µM; in assay [17], 25.3 µM.
As for `C1=NN2C(c3ccccc3)=NOC2C2C(c3ccccc3)=NOC12` (stereo unspecified), the TGI in assay [1], in [3], in assay [5], in [6], in assay [7] and in assay [8] was above 100 µM in each case. Moreover, the TGI in assay [9], in assay [10], in [11], in assay [12], in assay [13] and in assay [14] was above 100 µM throughout. Moreover, the TGI in assay [15], in assay [16] and in [17] was above 100 µM in each case.
Take `CC(C)(C)OC(=O)N(O)CCCn1cnc2c(NC3CC3)ncnc21`: the TGI in [1], in [2], in assay [3], in assay [4], in assay [5] and in [6] was above 100 µM in each case. Besides, the TGI in assay [7], in assay [18], in [8], in [9], in assay [10] and in assay [11] was above 100 µM each time. For the same molecule, the TGI in [12], in assay [13], in [14], in assay [15], in assay [16] and in [17] was above 100 µM each time.
With `N#Cc1c(C#N)c(SSc2c(C#N)c(C#N)c(N)n2-c2cccc3ccccc23)n(-c2cccc3ccccc23)c1N`, the TGI in assay [1] is 35.5 µM; in assay [2] it was above 100 µM; in [3] it was above 100 µM; in assay [4], above 100 µM; in assay [5], above 76.8 µM; in assay [6], above 57.6 µM. Also, the TGI in [7] turned out to be 56.3 µM; in assay [18], 34.8 µM; in assay [8], 4.26 µM; in [9], 29.5 µM; in assay [10], 38.9 µM; in [11], 38.7 µM. The TGI in [12] is above 100 µM; in assay [13] it was above 100 µM; in assay [14] it was 85.8 µM; in [15], above 25.3 µM; in [16], 40.8 µM; in assay [17], 33.2 µM.
`O=C1CSC(c2ccccc2)N1c1ccc(-c2ccc(-n3c(-c4ccccc4)nc4ccccc4c3=O)cc2)cc1` (stereo unspecified): the TGI in [1], in assay [2], in assay [3], in assay [4], in assay [5] and in assay [6] was above 100 µM each time. The TGI in assay [18], in assay [8], in [9], in assay [10], in assay [12] and in assay [13] was above 100 µM each time. Further, the TGI in assay [14], in [19], in assay [15], in [16] and in assay [17] was above 100 µM in each case.
With `COc1cc(-c2nc(N)c(C#N)c3c2CCS(=O)(=O)c2ccc(C)cc2-3)cc(OC)c1OC`, the TGI in assay [1] is above 100 µM; in assay [4], above 100 µM; in assay [5], above 100 µM; in assay [6] it was above 100 µM; in [7] it was 51.1 µM; in assay [18], above 100 µM. Also, the TGI in assay [8] is above 100 µM; in [9] it was above 100 µM; in [11], 75.9 µM; in assay [12] it was above 100 µM; in assay [13], above 100 µM; in assay [14], above 100 µM. Moreover, the TGI in assay [19] was above 100 µM; in assay [15], 26.9 µM; in [16], 56.3 µM; in assay [17], above 100 µM.
On to `CC(=O)Oc1ccc2c(c1)[nH]c1c3ccc(OC(C)=O)cc3oc(=O)c21`, for which the TGI was above 100 µM in assay [1]; above 100 µM in assay [2]; 90.4 µM in assay [3]; above 100 µM in [4]; above 100 µM in assay [5]; above 100 µM in assay [6]. Also, the TGI in assay [7] is 76.5 µM; in [18] it was above 100 µM; in assay [8], above 100 µM; in assay [9] it was above 100 µM; in assay [10] it was above 100 µM; in [11], above 100 µM. The TGI in assay [12] is above 100 µM; in [13], above 100 µM; in assay [14], 67.7 µM; in assay [15], above 100 µM; in assay [16], 88.2 µM; in [17], 75 µM.
As to `COC(C)=NCCC1=CCCCC1`, the TGI in [1], in assay [2], in assay [3], in [4], in assay [5] and in assay [6] was above 100 µM in each case. For the same molecule, the TGI in assay [8], in assay [9], in [10], in assay [11], in assay [12] and in assay [13] was above 100 µM throughout. The TGI in assay [14], in assay [15], in [16] and in assay [17] was above 100 µM each time.
Consider `CCOC(=O)c1ccc(N=C2Sc3nc4ccccc4n3C2=Nc2ccc(C(=O)OCC)cc2)cc1`, for which the TGI in assay [1] is above 100 µM; in assay [2] it was above 100 µM; in assay [3] it was 31.3 µM; in assay [5], 72.7 µM; in assay [6] it was 75.5 µM; in assay [7], 73.8 µM. Further, the TGI was above 100 µM in assay [18]; 24.5 µM in assay [8]; 70.6 µM in assay [9]; 37.3 µM in [10]; 69.6 µM in assay [12]; above 100 µM in assay [13]. The TGI is above 100 µM in [14]; above 100 µM in assay [19]; 89.7 µM in assay [15]; 52.5 µM in assay [16]; 84.3 µM in assay [17].
Regarding `Cc1cn(CC(=S)NCCc2c[nH]c3ccccc23)c(=O)[nH]c1=O`, the TGI in assay [1], in [2], in [3], in [4], in assay [5] and in assay [6] was above 100 µM each time. The TGI in assay [7], in assay [18], in assay [8], in assay [13], in assay [19] and in [16] was above 100 µM in each case. Besides, in [17], the TGI is above 100 µM.
Consider `CC(C)=CCC/C(C)=C/Cc1c2c(c3oc(-c4ccc(O)c(O)c4)c(O)c(=O)c3c1O)C=CC(C)(C)O2`, for which the TGI in [1] worked out at 12.5 µM; in assay [2] it was 8.98 µM; in [3], 11.4 µM; in assay [4] it was 9.63 µM; in assay [5], 11.7 µM; in assay [6], 18.7 µM. The TGI in assay [7] turned out to be 15.2 µM; in assay [18] it was 14.5 µM; in assay [8], 7.92 µM; in assay [9], 5.55 µM; in assay [10] it was 13.4 µM; in assay [11], 11.6 µM. Moreover, the TGI was 10.9 µM in assay [12]; 9.89 µM in [13]; 6.29 µM in assay [19]; 7.92 µM in [15]; 14.5 µM in assay [16]; 10.7 µM in [17].
In the case of `Nc1ccc(Oc2ccc(C34CC5C6CC7(c8ccc(Oc9ccc(N)cc9)cc8)CC5C(C3)C(C7)C6C4)cc2)cc1`, the TGI in [1], in [2], in [3], in [4], in assay [5] and in assay [6] was above 100 µM each time. Moreover, the TGI in assay [7], in assay [18], in assay [8], in assay [9], in assay [10] and in assay [12] was above 100 µM throughout. Moreover, the TGI in [13], in assay [19], in assay [15], in assay [16] and in assay [17] was above 100 µM each time.
As to `CC1=CC2(C)C=C[C@@H]1C(=O)[C@@]1(C)CC[C@@](O)(C(C)C)[C@H]1CC2`, the TGI in assay [1] came to 51.9 µM; in assay [2], 51.9 µM; in [3] it was 76 µM; in assay [4], 52.1 µM; in assay [5], 40 µM; in assay [6] it was 54.9 µM. The TGI in [7] amounted to 43.8 µM; in assay [18], 39.4 µM; in assay [8] it was 33.3 µM; in assay [10], 38.1 µM; in assay [11], 58.3 µM; in [12], 32.5 µM. In addition, the TGI in [13] is 41.7 µM; in [14] it was 34.6 µM; in assay [15], 32.6 µM; in assay [16] it was 35.5 µM; in assay [17], 57.1 µM.
On to `CCn1c2ccccc2c2ccc(C3C4C(=O)N(c5cccc6ccccc56)C(=O)C4ON3C(C(N)=O)c3ccccc3)cc21` (stereo unspecified), for which the TGI in assay [1], in [2], in assay [3], in assay [4], in assay [5] and in assay [6] was above 25 µM each time. In addition, the TGI in [7] was 8.05 µM; in assay [18] it was above 25 µM; in [8], above 25 µM; in [9], 11.3 µM; in [10], above 25 µM; in assay [11] it was above 25 µM. Further, the TGI in [12], in assay [13], in [19], in assay [15], in assay [16] and in [17] was above 25 µM throughout.
As to `CCCCC/C=C\C=C\CCCCCCCCC(=O)OC`, the TGI in [1], in assay [2], in [3], in assay [4], in [5] and in assay [6] was above 100 µM throughout. The TGI in [7], in assay [18], in assay [8], in assay [9], in [10] and in assay [11] was above 100 µM in each case. Besides, the TGI in [12], in assay [13], in assay [19], in [15], in [16] and in [17] was above 100 µM in each case.
